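Grown in 96-well plates, cells were treated for 48 hours with each compound at five concentrations. Insufficient inhibition: endpoint recorded as highest concentration tested. GI50 marks 50% less growth. TGI denotes the concentration required for complete inhibition of growth.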
How the values were obtained:
Experiment in all cases: NCI-60 cell line screen, 48 h
HCT-116 colon = system: HCT-116 colon
KM12 colon = system: KM12 colon
HS 578T breast = system: HS 578T breast
UO-31 renal = system: UO-31 renal
HCT-15 colon = system: HCT-15 colon
SK-MEL-2 melanoma = system: SK-MEL-2 melanoma
HOP-92 NSCLC = system: HOP-92 NSCLC
M14 melanoma = system: M14 melanoma
IGROV1 ovarian = system: IGROV1 ovarian
HOP-62 NSCLC = system: HOP-62 NSCLC
NCI-H522 lung = system: NCI-H522 lung
ACHN renal = system: ACHN renal
SF-268 CNS = system: SF-268 CNS
OVCAR-3 ovarian = system: OVCAR-3 ovarian
A498 renal = system: A498 renal
SK-OV-3 ovarian = system: SK-OV-3 ovarian
OVCAR-4 ovarian = system: OVCAR-4 ovarian
MALME-3M melanoma = system: MALME-3M melanoma
K-562 leukemia = system: K-562 leukemia
NCI-H460 lung = system: NCI-H460 lung
SN12C renal = system: SN12C renal
MCF7 breast = system: MCF7 breast
RPMI-8226 leukemia = system: RPMI-8226 leukemia
SNB-75 CNS = system: SNB-75 CNS
SK-MEL-5 melanoma = system: SK-MEL-5 melanoma
MDA-MB-231 breast = system: MDA-MB-231 breast
PC-3 prostate = system: PC-3 prostate
CCRF-CEM leukemia = system: CCRF-CEM leukemia
COLO 205 colon = system: COLO 205 colon
SF-295 CNS = system: SF-295 CNS

SMILES: CC([C@H]1CC=C2C3CCC4=C[C@@H](N(C)C)CC[C@]4(C)C3CC[C@@]21C)N(C)C (stereo partly drawn)
- TGI (HCT-116 colon): 2.76 µM
- GI50 (KM12 colon): 2.77 µM
- TGI (KM12 colon): 11.9 µM
- GI50 (HS 578T breast): 3.24 µM
- TGI (HS 578T breast): 13.6 µM
- GI50 (UO-31 renal): 1.95 µM
- TGI (UO-31 renal): 5.54 µM
- GI50 (HCT-15 colon): 1.38 µM
- TGI (HCT-15 colon): 3.82 µM
- GI50 (SK-MEL-2 melanoma): 8.23 µM
- TGI (SK-MEL-2 melanoma): 21 µM
- GI50 (HOP-92 NSCLC): 3.66 µM
- TGI (HOP-92 NSCLC): 10.3 µM
- GI50 (M14 melanoma): 1.76 µM
- TGI (M14 melanoma): 3.53 µM
- GI50 (IGROV1 ovarian): 4.88 µM
- GI50 (HOP-62 NSCLC): 1.8 µM
- TGI (HOP-62 NSCLC): 3.87 µM
- GI50 (NCI-H522 lung): 7.12 µM
- TGI (NCI-H522 lung): 25 µM
- GI50 (ACHN renal): 4.07 µM
- TGI (ACHN renal): 14.7 µM
- GI50 (SF-268 CNS): 1.98 µM
- TGI (SF-268 CNS): 4.71 µM
- GI50 (OVCAR-3 ovarian): 2.45 µM
- TGI (OVCAR-3 ovarian): 8.74 µM
- GI50 (A498 renal): 3.27 µM
- TGI (A498 renal): 13.9 µM
- GI50 (SK-OV-3 ovarian): 3.86 µM
- TGI (SK-OV-3 ovarian): 11.6 µM
- GI50 (OVCAR-4 ovarian): 3.26 µM
- TGI (OVCAR-4 ovarian): 21.9 µM
- GI50 (MALME-3M melanoma): 1.92 µM
- TGI (MALME-3M melanoma): 4.47 µM
- GI50 (K-562 leukemia): 0.611 µM
- TGI (K-562 leukemia): 3.05 µM
- GI50 (NCI-H460 lung): 2.07 µM
- TGI (NCI-H460 lung): 5.48 µM
- GI50 (SN12C renal): 2.54 µM
- TGI (SN12C renal): 12.1 µM
- GI50 (MCF7 breast): 1.98 µM
- TGI (MCF7 breast): 9.4 µM
- GI50 (RPMI-8226 leukemia): 1.91 µM
- TGI (RPMI-8226 leukemia): 13 µM
- GI50 (SNB-75 CNS): 3.3 µM
- TGI (SNB-75 CNS): 10.6 µM
- GI50 (SK-MEL-5 melanoma): 1.35 µM
- TGI (SK-MEL-5 melanoma): 2.71 µM
- GI50 (MDA-MB-231 breast): 2.33 µM
- TGI (MDA-MB-231 breast): 7.9 µM
- GI50 (PC-3 prostate): 2.15 µM
- TGI (PC-3 prostate): 7.72 µM
- GI50 (CCRF-CEM leukemia): 2.11 µM
- TGI (CCRF-CEM leukemia): 7.79 µM
- GI50 (COLO 205 colon): 1.7 µM
- TGI (COLO 205 colon): 3.37 µM
- GI50 (SF-295 CNS): 1.79 µM
- TGI (SF-295 CNS): 4.35 µM
